Results as given in ChEMBL document CHEMBL6078647 (J Med Chem, 2024).
Calls of active or inactive are those of the source. The rule behind the calls is not given here. Square brackets hold non-standard residues; d marks the D form. Peptide text beside a SMILES is read from it. * marks the point of attachment. ξ: configuration not given here. X1 = C[N+]1=C(/C=C/C=C2\N(CCCCCC(=O)*)c3ccccc3C2(C)C)C(C)(C)c2ccccc21; PEG2 = NCCOCCOCCC(=O)O; ξD = NC(CC(=O)O)C(=O)O

How the values were obtained:
[1] = target: T1, Type-2 angiotensin II receptor (Homo sapiens) (UniProt P50052); test: Binding affinity to GFP-tagged AT2R (unknown origin) extracted from HEK293 cell membrane assessed as increase in median red fluorescence intensity incubated for 15 mins by flow cytometric analysis; type: cell membranes; conditions: filed as agonist
T1 sequence (whole entry): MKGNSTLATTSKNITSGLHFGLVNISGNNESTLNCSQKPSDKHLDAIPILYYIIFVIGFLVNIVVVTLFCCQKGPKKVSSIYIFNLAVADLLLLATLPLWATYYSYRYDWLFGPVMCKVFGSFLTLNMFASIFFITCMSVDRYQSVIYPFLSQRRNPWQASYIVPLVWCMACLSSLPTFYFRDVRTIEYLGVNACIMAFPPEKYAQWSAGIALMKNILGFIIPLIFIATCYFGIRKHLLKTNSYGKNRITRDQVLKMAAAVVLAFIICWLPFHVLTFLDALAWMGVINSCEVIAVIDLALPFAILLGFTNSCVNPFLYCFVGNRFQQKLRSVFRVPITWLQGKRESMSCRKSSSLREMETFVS

[2] = target: T2, Type-1 angiotensin II receptor (Homo sapiens) (UniProt P30556); test: Binding affinity to human GFP-tagged AT1R (unknown origin) extracted from HEK293 cell membrane assessed as colocalization of AT1R in endocytic vesicles at 100 nM incubated for 30 mins by epifluorescence microscopic analysis; type: cell membranes
T2 sequence (whole entry): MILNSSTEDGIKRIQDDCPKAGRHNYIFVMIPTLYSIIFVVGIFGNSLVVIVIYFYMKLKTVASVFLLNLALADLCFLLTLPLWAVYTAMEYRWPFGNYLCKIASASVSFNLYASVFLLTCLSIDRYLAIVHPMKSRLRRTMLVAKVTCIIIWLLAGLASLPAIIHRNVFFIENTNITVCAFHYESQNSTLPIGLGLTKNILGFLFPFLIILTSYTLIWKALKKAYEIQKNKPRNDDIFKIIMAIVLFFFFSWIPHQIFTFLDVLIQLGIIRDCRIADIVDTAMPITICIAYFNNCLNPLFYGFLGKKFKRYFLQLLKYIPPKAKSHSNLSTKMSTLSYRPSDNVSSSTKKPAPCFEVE

[3] = Fluorescence property of compound in HEPES buffer assessed as quantum yield; type: physicochemical
[4] = target: T2, Type-1 angiotensin II receptor (Homo sapiens); test: Agonist activity at Flag-tagged AT1R (unknown origin) extracted from HEK293 cell membrane assessed as increase in intracellular calcium at >100 nM incubated for 30 mins by microplate reader analysis; type: functional, cell membranes; conditions: filed as agonist
[5] = target: T1, Type-2 angiotensin II receptor (Homo sapiens); test: Binding affinity to human GFP-tagged AT2R extracted from HEK293 cell membrane assessed as colocalization of AT2R in plasma membrane at 30 nM incubated for 30 mins by epifluorescence microscopic analysis; type: cell membranes; conditions: filed as agonist
[6] = tested on: Cerebral artery; test: Vaso-constriction activity in male wistar rat middle cerebral artery assessed as arterial contraction at 1 uM; type: functional, tissue-based
[7] = target: T3, Type-2 angiotensin II receptor (Homo sapiens, UniProt P50052); test: Binding affinity to human AT2R extracted from HEK293T cell membrane assessed as inhibition constant in presence of [125I][Sar1 Ile8]-angiotensin II by competitive radioligand binding assay; type: cell membranes
T3 sequence (P50052 whole entry): T1 sequence (whole entry)

[8] = organism: Homo sapiens; test: Selectivity index, ratio of Ki for binding affinity to human AT1R extracted from HEK293T cell membrane in presence of [125I][Sar1 Ile8]-angiotensin II by competitive radioligand binding assay to Ki for binding affinity to human AT2R extracted from HEK293T cell membrane in presence of [125I][Sar1 Ile8]-angiotensin II by competitive radioligand binding assay
[9] = target: T4, Type-1 angiotensin II receptor (Homo sapiens, UniProt P30556); test: Binding affinity to human AT1R extracted from HEK293T cell membrane assessed as inhibition constant in presence of [125I][Sar1 Ile8]-angiotensin II by competitive radioligand binding assay; type: cell membranes
T4 sequence (P30556 whole entry): T2 sequence (whole entry)

[10] = target: T2, Type-1 angiotensin II receptor (Homo sapiens); test: Agonist activity at AT1R (unknown origin) extracted from HEK293 cell membrane coexpressing NLuc and Venus-miniG assessed as miniGq protein recruitment at 1 uM using NanoGlo as substrate preincubated for 30 mins followed by substrate addition for 10 mins by BRET assay; type: functional, cell membranes; conditions: filed as agonist, time 40.0 min
[11] = target: T1, Type-2 angiotensin II receptor (Homo sapiens); test: Binding affinity to human GFP-tagged AT2R extracted from HEK293 cell membrane assessed as colocalization of AT2R in plasma membrane at 100 nM incubated for 30 mins by epifluorescence microscopic analysis; type: cell membranes
[12] = tested on: Cerebral artery; test: Vaso-constriction activity in male wistar rat middle cerebral artery assessed as arterial contraction at 10 nM; type: functional, tissue-based
[13] = target: T2, Type-1 angiotensin II receptor (Homo sapiens); test: Agonist activity at Flag-tagged AT1R (unknown origin) extracted from HEK293T cell membrane co expressing YPET-ARRB1 assessed as beta-arrestin 1 recruitment using NanoGlo as substrate preincubated for 30 mins followed by substrate addition for 10 mins by BRET assay; type: functional, cell membranes; conditions: HEK293
[14] = target: T2, Type-1 angiotensin II receptor (Homo sapiens); test: Agonist activity at Flag-tagged AT1R (unknown origin) extracted from HEK293 cell membrane co expressing YPET-ARRB2 assessed as beta-arrestin 2 recruitment using NanoGlo as substrate preincubated for 30 mins followed by substrate addition for 10 mins by BRET assay; type: functional, cell membranes
[15] = tested on: Cerebral artery; test: Vaso-constriction activity in male wistar rat middle cerebral artery assessed as arterial contraction; type: functional, tissue-based
[16] = target: T2, Type-1 angiotensin II receptor (Homo sapiens); test: Induction of human NLuc-tagged AT1R (unknown origin) internalization in HEK293 cells co expressing venus-MP using NanoGlo as substrate preincubated for 30 mins followed by substrate addition for 10 mins by BRET assay; type: functional
[17] = tested on: Cerebral artery; test: Vaso-constriction activity in male wistar rat middle cerebral artery assessed as arterial contraction at 1 uM in presence of losartan; type: functional, tissue-based

Compound | Activity [3] | Ki ([7]; read-out: Ki) [nM] | Ki ([7]; read-out: pKi (converted)) [nM] | Ratio Ki [8] | Ki ([9]; read-out: Ki) [µM] | Activity [10] | Activity [6] | Activity [13] | Activity [14] | Activity [16] | other results
CC[C@H](C)[C@H](NC(=O)[C@H](Cc1ccc(O)cc1)NC(=O)[C@@H](NC(=O)[C@H](CCCNC(=N)N)NC(=O)CN(C)C(=O)CCCCCN1/C(=C\C=C\C2=[N+](C)c3ccccc3C2(C)C)C(C)(C)c2ccccc21)C(C)C)C(=O)N[C@@H](Cc1c[nH]cn1)C(=O)N1CCC[C@H]1C(=O)N[C@@H](C)C(=O)O | 0.076 | 4.23 | 3.31 | 1280 | 5.43 | Active | Active | – | – | – | Activity [1]: Active; Activity ([2]; filed as agonist): Active; Scarce Colocalization Of Compound Was Observed; Activity [4]: Active; Activity [5]: Active; Ki ([9]; read-out: pKi (converted)): 5.13 µM
CC[C@H](C)[C@H](NC(=O)[C@H](Cc1ccc(O)cc1)NC(=O)[C@@H](NC(=O)[C@H](CCCNC(=N)N)NC(=O)CN(C)C(=O)CCOCCOCCNC(=O)CCCCCN1/C(=C\C=C\C2=[N+](C)c3ccccc3C2(C)C)C(C)(C)c2ccccc21)C(C)C)C(=O)N[C@@H](Cc1c[nH]cn1)C(=O)N1CCC[C@H]1C(=O)N[C@@H](C)C(=O)O | 0.058 | 22.6 | 16.2 | > 500 | > 10 | Active | Active | – | – | – | Activity [11]: inactive; Activity [2]: inactive; pKi ([9]; hek293t): < 5
H-YFHPDVIR-OH | – | – | – | – | – | – | – | inactive | inactive | inactive | Activity [15]: inactive

Continued, in another order:

Activity [3] | Ki ([7]; read-out: Ki) [nM] | Ki ([7]; read-out: pKi (converted)) [nM] | Ratio Ki [8] | Ki ([9]; read-out: Ki) [µM] | Activity [10] | Compound | Activity [6] | Activity [13] | Activity [14] | Activity [16] | other results
0.068 | – | – | – | – | – | CC[C@H](C)[C@H](NC(=O)[C@H](Cc1ccc(O)cc1)NC(=O)[C@@H](NC(=O)[C@H](CCCNC(=N)N)NC(=O)[C@H](CC(=O)O)NC(=O)CCOCCOCCNC(=O)CCCCCN1/C(=C\C=C\C2=[N+](C)c3ccccc3C2(C)C)C(C)(C)c2ccccc21)C(C)C)C(=O)N[C@@H](Cc1c[nH]cn1)C(=O)N1CCC[C@H]1C(=O)N[C@@H](Cc1ccccc1)C(=O)O | Active | – | – | – | Activity [12]: Active
0.064 | – | – | – | – | – | CC[C@H](C)[C@H](NC(=O)[C@@H](NC(=O)C(CC(=O)O)NC(=O)[C@@H]1CCCN1C(=O)[C@H](Cc1c[nH]cn1)NC(=O)[C@H](Cc1ccccc1)NC(=O)[C@H](Cc1ccc(O)cc1)NC(=O)CCOCCOCCNC(=O)CCCCCN1/C(=C\C=C\C2=[N+](C)c3ccccc3C2(C)C)C(C)(C)c2ccccc21)C(C)C)C(=O)N[C@@H](CCCNC(=N)N)C(=O)O (some centres undefined) ({X1-PEG2}-YFHP[ξD]VIR-OH) | – | inactive | inactive | inactive | Activity [17]: Active
